Data as given in patent US9499550B2 (BRISTOL-MYERS SQUIBB COMPANY, priority 2012, dated 2016).
pEC50: −log10 of the molar value. Where two headings read alike, the source gives them in different places.

How the values were obtained:
[1] = tested on: HCV genotype 1b (Con1) replicon in HUH-7 cells; experiment: HCV replicon luciferase reporter assay, genotype 1b; format: cell-based; conditions: Hepatitis C virus, Huh-7, 72 h, 3 days incubation, read-out: LE_1b (EC50, range)
Outline: (§1)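 Replicon inhibition for both genotypes was measured as Renilla luciferase signal (EnduRen, 7.5 μM final, 2 h) after 3-day, 37° C exposure of replicon-bearing HUH-7 cells in 4% FCS DMEM, 0.5% DMSO. The 1b construct carries S1179I; the 1a H77 construct carries P1496L and S2204I. Twenty-point, 3-fold dilutions were fitted four-parametrically for EC50, and CC50 was taken from multiplexed Cell Titer-Blue.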

[2] = tested on: HCV genotype 1a (H77 strain) replicon in HUH-7 cells; experiment: HCV replicon luciferase reporter assay, genotype 1a; format: cell-based; conditions: Hepatitis C virus, Huh-7, 72 h, 3 days incubation, read-out: LE_1a (EC50, range)
Outline: as §1

[3] = HCV genotype 1b replicon luciferase assay, range class
[4] = HCV genotype 1a replicon luciferase assay, range class
[5] = HCV genotype 1b replicon luciferase
[6] = HCV genotype 1a replicon luciferase
[7] = GETYPE1B, HCV genotype 1b replicon luciferase
[8] = GETYPE1A, HCV genotype 1a replicon luciferase

| Structure (SMILES) | pEC50 [1, 5] | pEC50 [2, 6] | other results |
| --- | --- | --- | --- |
| CC(C)Oc1cc2c(Cl)cccc2c(O[C@@H]2C[C@H]3C(=O)N[C@]4(C(=O)NS(=O)(=O)C5CC5)C[C@H]4/C=C\CC[C@H](C)C[C@@H](C)[C@H](NC(=O)OC(C)(C)C)C(=O)N3C2)n1 [Compound 1091, tert-butyl ((2R,6S,7R,9S,13aS,14aR,16aS,Z)-2-((5-chloro-3-isopropoxyisoquinolin-1-yl)oxy)-14a-((cyclopropylsulfonyl)carbamoyl)-7,9-dimethyl-5,16-dioxo-1,2,3,5,6,7,8,9,10,11,13a,14,14a,15,16,16a-hexadecahydrocyclopropa[e]pyrrolo[1,2-a][1,4]diazacyclopentadecin-6-yl)carbamate] | – | – | pEC50 [1, 3]: > 8.26; pEC50 [2, 4]: 6.99 to 8.32 |
| CC[C@@H]1C[C@H](C)CC/C=C\[C@@H]2C[C@@]2(C(=O)NS(=O)(=O)C2(C)CC2)NC(=O)[C@@H]2C[C@@H](Oc3cc4nc(OC)c(C(F)(F)F)nc4cc3OC)CN2C(=O)[C@H]1NC(=O)OC(C)(C)C [Compound 4365, tert-butyl ((2R,6S,7R,9R,13aS,14aR,16aS,Z)-2-((3,7-dimethoxy-2-(trifluoromethyl)quinoxalin-6-yl)oxy)-7-ethyl-9-methyl-14a-(((1-methylcyclopropyl)sulfonyl)carbamoyl)-5,16-dioxo-1,2,3,5,6,7,8,9,10,11,13a,14,14a,15,16,16a-hexadecahydrocyclopropa[e]pyrrolo[1,2-a][1,4]diazacyclopentadecin-6-yl)carbamate] | 7.46 to 8.30 | 7.46 to 8.30 | – |
| COc1ccc2c(O[C@@H]3C[C@H]4C(=O)N[C@]5(C(=O)NS(=O)(=O)C6(CF)CC6)C[C@H]5/C=C\CC[C@H](C)C[C@@H](C)[C@H](NC(=O)OC(C)(C)C(F)(F)F)C(=O)N4C3)ncc(C(F)(F)F)c2c1 [Compound 1174, 1,1,1-trifluoro-2-methylpropan-2-yl((2R,6S,7R,9S,13aS,14aR,16aS,Z)-14a-(((1-(fluoromethyl)cyclopropyl)sulfonyl)carbamoyl)-2-((6-methoxy-4-(trifluoromethyl)isoquinolin-1-yl)oxy)-7,9-dimethyl-5,16-dioxo-1,2,3,5,6,7,8,9,10,11,13a,14,14a,15,16,16a-hexadecahydrocyclopropa[e]pyrrolo[1,2-a][1,4]diazacyclopentadecin-6-yl)carbamate] | – | – | pEC50 [1, 3]: 6.99 to 8.32; pEC50 [2, 4]: 6.99 to 8.32 |
| COc1ccc2c(O[C@@H]3C[C@H]4C(=O)N[C@]5(C(=O)NS(=O)(=O)C6(CF)CC6)C[C@H]5/C=C\CC[C@H](C)C[C@@H](C)[C@H](NC(=O)OC(C)(C)C(C)(F)F)C(=O)N4C3)ncc(C(F)(F)F)c2c1 [Compound 1166, 3,3-difluoro-2-methylbutan-2-yl((2R,6S,7R,9S,13aS,14aR,16aS,Z)-14a-(((1-(fluoromethyl)cyclopropyl)sulfonyl)carbamoyl)-2-((6-methoxy-4-(trifluoromethyl)isoquinolin-1-yl)oxy)-7,9-dimethyl-5,16-dioxo-1,2,3,5,6,7,8,9,10,11,13a,14,14a,15,16,16a-hexadecahydrocyclopropa[e]pyrrolo[1,2-a][1,4]diazacyclopentadecin-6-yl)carbamate] | – | – | pEC50 [1, 3]: 6.99 to 8.32; pEC50 [2, 4]: 6.99 to 8.32 |
| COc1ccc2c(O[C@@H]3C[C@H]4C(=O)N[C@]5(C(=O)NS(=O)(=O)C6(C)CC6)C[C@H]5/C=C\CC[C@@H](C)C[C@@H](C)[C@H](NC(=O)O[C@@H]5C[C@@H]6C[C@@H]6C5)C(=O)N4C3)nc(-c3ccc(F)cc3)cc2c1 [Compound 3087, (1R,3r,5S)-bicyclo[3.1.0]hexan-3-yl((2R,6S,7R,9R,13aS,14aR,16aS,Z)-2-((3-(4-fluorophenyl)-6-methoxyisoquinolin-1-yl)oxy)-7,9-dimethyl-14a-(((1-methylcyclopropyl)sulfonyl)carbamoyl)-5,16-dioxo-1,2,3,5,6,7,8,9,10,11,13a,14,14a,15,16,16a-hexadecahydrocyclopropa[e]pyrrolo[1,2-a][1,4]diazacyclopentadecin-6-yl)carbamate] | – | – | pEC50 [1, 3]: > 8.26; pEC50 [2, 4]: > 8.26 |
| COc1ccc2c(O[C@@H]3C[C@H]4C(=O)N[C@]5(C(=O)NS(=O)(=O)C6(C)CC6)C[C@H]5/C=C\CC[C@@H](C)C[C@@H](C)[C@H](NC(=O)OC(C)(C)C(F)(F)F)C(=O)N4C3)cc(-c3ccc(OC(C)C)cc3)nc2c1 [Compound 4172] | – | – | pEC50 [1, 7]: > 8.26; pEC50 [2, 8]: > 8.26 |
| CC(C)Oc1cc2ccccc2c(O[C@@H]2C[C@H]3C(=O)N[C@]4(C(=O)NS(=O)(=O)C5(CF)CC5)C[C@H]4/C=C\CC[C@@H](C)C[C@@H](C)[C@H](NC(=O)OC(C)(C)C(C)(F)F)C(=O)N3C2)n1 [Compound 6118, 3,3-difluoro-2-methylbutan-2-yl((2R,6S,7R,9R,13aS,14aR,16aS,Z)-14a-(((1-(fluoromethyl)cyclopropyl)sulfonyl)carbamoyl)-2-((3-isopropoxyisoquinolin-1-yl)oxy)-7,9-dimethyl-5,16-dioxo-1,2,3,5,6,7,8,9,10,11,13a,14,14a,15,16,16a-hexadecahydrocyclopropa[e]pyrrolo[1,2-a][1,4]diazacyclopentadecin-6-yl)carbamate] | 8.30 to 9.00 | 8.30 to 9.00 | – |
| COc1ccc2c(O[C@@H]3C[C@H]4C(=O)N[C@]5(C(=O)NS(=O)(=O)C6(C)CC6)C[C@H]5/C=C\CC[C@@H](C)C[C@@H](C)[C@H](NC(=O)OC(C)(C)C(C)(F)F)C(=O)N4C3)nc(OC(C)C)cc2c1 [Compound 3204, 3,3-difluoro-2-methylbutan-2-yl((2R,6S,7R,9R,13aS,14aR,16aS,Z)-2-((3-isopropoxy-6-methoxyisoquinolin-1-yl)oxy)-7,9-dimethyl-14a-(((1-methylcyclopropyl)sulfonyl)carbamoyl)-5,16-dioxo-1,2,3,5,6,7,8,9,10,11,13a,14,14a,15,16,16a-hexadecahydrocyclopropa[e]pyrrolo[1,2-a][1,4]diazacyclopentadecin-6-yl)carbamate] | 8.30 to 9.00 | 9.00 to 9.29 | – |
| CC[C@@H]1C[C@H](C)CC/C=C\[C@@H]2C[C@@]2(C(=O)NS(=O)(=O)C2CC2)NC(=O)[C@@H]2C[C@@H](Oc3nccc4cc(OC)c(F)cc34)CN2C(=O)[C@H]1NC(=O)OC(C)(C)C [Compound 4003, tert-butyl (2R,6S,7R,9R,13aS,14aR,16aS,Z)-14a-(cyclopropylsulfonylcarbamoyl)-7-ethyl-2-(7-fluoro-6-methoxyisoquinolin-1-yloxy)-9-methyl-5,16-dioxo-1,2,3,5,6,7,8,9,10,11,13a,14,14a,15,16,16a-hexadecahydrocyclopropa[e]pyrrolo[1,2-a][1,4]diazacyclopentadecin-6-ylcarbamate] | > 8.26 | > 8.26 | – |
| COc1cnc(O[C@@H]2C[C@H]3C(=O)N[C@]4(C(=O)NS(=O)(=O)C5(C)CC5)C[C@H]4/C=C\CC[C@@H](C)C[C@@H](C)[C@H](NC(=O)OC(C)(C)C(F)(F)F)C(=O)N3C2)c2cccc(Cl)c12 [Compound 4065] | – | – | pEC50 [1, 7]: > 8.26; pEC50 [2, 8]: > 8.26 |
| CC[C@@H]1C[C@H](C)CC/C=C\[C@@H]2C[C@@]2(C(=O)NS(=O)(=O)C2CC2)NC(=O)[C@@H]2C[C@@H](Oc3cc(OC)nc4cc(OC)ccc34)CN2C(=O)[C@H]1NC(=O)OC(C)(C)C(C)(F)F [Compound 1212] | – | – | pEC50 [1, 7]: 9.30 to 10.00; pEC50 [2, 8]: 8.30 to 9.00 |
| [2H]C([2H])([2H])C(OC(=O)N[C@@H]1C(=O)N2C[C@H](Oc3nc(-c4ccc(OC(C)C)nc4)cc4cc(OC)ccc34)C[C@H]2C(=O)N[C@]2(C(=O)NS(=O)(=O)C3(C)CC3)C[C@H]2/C=C\CC[C@@H](C)C[C@H]1C)(C([2H])([2H])[2H])C(F)(F)F [Compound 5227, 1,1,1,3,3,3-hexadeutero-2-(trifluoromethyl)propan-2-yl((2R,6S,7R,9R,13aS,14aR,16aS,Z)-2-((3-(6-isopropoxypyridin-3-yl)-6-methoxyisoquinolin-1-yl)oxy)-7,9-dimethyl-14a-(((1-methylcyclopropyl)sulfonyl)carbamoyl)-5,16-dioxo-1,2,3,5,6,7,8,9,10,11,13a,14,14a,15,16,16a-hexadecahydrocyclopropa[e]pyrrolo[1,2-a][1,4]diazacyclopentadecin-6-yl)carbamate] | > 8.26 | > 8.26 | – |
| CC(C)Oc1ccc2c(O[C@@H]3C[C@H]4C(=O)N[C@]5(C(=O)NS(=O)(=O)C6(C)CC6)C[C@H]5/C=C\CC[C@@H](C)C[C@@H](C)[C@H](NC(=O)O[C@H](C)C(F)(F)F)C(=O)N4C3)nccc2c1 [Compound 5161, (R)-1,1,1-trifluoropropan-2-yl ((2R,6S,7R,9R,13aS,14aR,16aS,Z)-2-((6-isopropoxyisoquinolin-1-yl)oxy)-7,9-dimethyl-14a-(((1-methylcyclopropyl)sulfonyl)carbamoyl)-5,16-dioxo-1,2,3,5,6,7,8,9,10,11,13a,14,14a,15,16,16a-hexadecahydrocyclopropa[e]pyrrolo[1,2-a][1,4]diazacyclopentadecin-6-yl)carbamate] | > 8.26 | > 8.26 | – |
| COc1ccc2c(O[C@@H]3C[C@H]4C(=O)N[C@]5(C(=O)NS(=O)(=O)C6CC6)C[C@H]5/C=C\CC[C@@H](C)C[C@@H](C)[C@H](NC(=O)OC(C)(C)C)C(=O)N4C3)nc(-c3ccc(OC(C)C)nc3)cc2c1 [Compound 5213, tert-butyl ((2R,6S,7R,9R,13aS,14aR,16aS,Z)-14a-((cyclopropylsulfonyl)carbamoyl)-2-((3-(6-isopropoxypyridin-3-yl)-6-methoxyisoquinolin-1-yl)oxy)-7,9-dimethyl-5,16-dioxo-1,2,3,5,6,7,8,9,10,11,13a,14,14a,15,16,16a-hexadecahydrocyclopropa[e]pyrrolo[1,2-a][1,4]diazacyclopentadecin-6-yl)carbamate] | > 8.26 | > 8.26 | – |
